# Measurements as given in patent US20260265222A1, “1H-PYRROLE-2-AMIDE DERIVATIVE, PHARMACEUTICAL COMPOSITION AND METHOD FOR TREATING AND/OR PREVENTING YTHDC1-RELATED DISEASES” (priority 2023, published 2026).
# Where two headings read alike, the source gives them in different places.
# Tests used:
# [1] = test system: leukaemia cell MOLM-13; assay: Differentiation detection by flow cytometry (PE-CD11b, APC-CD14); format: cell-based; conditions: MOLM-13, 0.5-2 μM, 5 days (FIG. 1c)
# Procedure: To detect the effect of the small molecule YL-5092 on the differentiation of leukaemia cell MOLM-13, MOLM-13 cells were evenly seeded in 12-well plates and treated them with different concentration gradients of YL-5092 (0.5-2 μM) for 5 days. After collection, the cells were washed twice with ice-cold PBS, and 2 μL of PE-CD11b antibody and 2 μL of APC-CD14 antibody were added for incubation for 30 min, protected from light, then washed twice with ice-cold PBS, and finally analyzed on the flow cytometer.
# [2] = test system: leukaemia cell MOLM-13; assay: Cell cycle detection by flow cytometry (PI); format: cell-based; conditions: MOLM-13, 0.5-2 μM, 48 h (FIG. 1b)
# Procedure: To detect the effect of the small molecule YL-5092 on the cell cycle of leukaemia cell MOLM-13, MOLM-13 cells were evenly seeded in 12-well plates and treated with different concentration gradients of YL-5092 (0.5-2 μM) for 48 h. After collection, the cells were washed once with ice-cold PBS and fixed with 70% ice-cold ethanol for 12 h. Before analysis on the flow cytometer, the cells were washed twice with ice-cold PBS and then incubated with PI reagent for 30 min, protected from light.
# [3] = test system: AML cells (MV4-11, HL-60, MOLM-13, THP-1, KG-1, U937, OCI-AML3); assay: Detection of cell proliferation by MTT assay; format: cell-based; conditions: 72 h, range over the cell lines (FIG. 1a), read-out: IC50 values, inhibition of proliferation of AML cells
# Procedure: AML cells (MV4-11, HL-60, MOLM-13, THP-1, KG-1, U937, and OCI-AML3) were seeded in 96-well plates at 10,000-15,000 cells per well, and then a series of concentration gradients of YL-5092 (i.e., Compound 29) were added for culture for 72 h. 20 μL of MTT solution ([…]) was added to each well and incubated for 2-4 hours, followed by the addition of 50 μL of 20% SDS solution and incubation overnight to dissolve the formazan. The absorbance value was then read at 570 nm on a microplate reader, and the IC50 value of YL-5092 was calculated using GraphPad Prism 8.0.
# [4] = target: T1, GST-YTHDC1 (345-509) protein (Homo sapiens, UniProt Q96MU7); assay: Fluorescence polarization-based in vitro enzyme-level test against YTHDC1; format: binding; conditions: read-out: IC50 (Inhibitory Activity against YTHDC1)
# T1 construct: GST-YTHDC1 (345-509) protein
# [5] = test system: leukaemia cells MOLM-13, MV4-11, THP-1, and U937; assay: Apoptosis detection by flow cytometry (APC-Annexin V, 7-AAD); format: cell-based; conditions: MOLM-13, MV4-11, THP-1, U937; 0.5-2 μM, 5 days (FIG. 1d)
# Procedure: To detect the effect of the small molecule YL-5092 on the apoptosis of leukaemia cells MOLM-13, MV4-11, THP-1, and U937, MOLM-13, MV4-11, THP-1, and U937 cells were evenly seeded in 12-well plates and treated them with different concentration gradients of YL-5092 (0.5-2 μM) for 5 days. After collection, the cells were washed twice with ice-cold PBS, and 5 μL of APC-Annexin V antibody and 5 μL of 7-AAD were added for incubation for 15-30 min, protected from light, and finally analyzed on the flow cytometer.
# [6] = 30 nM GST-YTHDC1 (345-509), FAM-labeled m6A-modified single-stranded oligonucleotide, 18° C., 4 hours
SMILES,"IC50 [4, 6]",further results
COC(=O)c1cccc(-c2ccc(NC(=O)c3cc(C(=O)c4ccccc4C(F)(F)F)c[nH]3)cc2)c1 [Compound 108],183 nM,
CN1CCN(c2ccc(-c3ccc(NC(=O)c4cc(C(=O)c5ccccc5C(F)(F)F)c[nH]4)cc3)cc2)CC1 [Compound 109],44 nM,
CN(C)c1ccccc1-c1ccc(NC(=O)c2cc(C(=O)c3ccccc3C(F)(F)F)c[nH]2)cc1 [Compound 110],413 nM,
O=C(Nc1ccccc1)c1ccc(NC(=O)c2cc(C(=O)c3ccccc3C(F)(F)F)c[nH]2)cc1 [Compound 111],367 nM,
O=C(Nc1ccc(C(F)(F)F)cc1[N+](=O)[O-])c1cc(C(=O)c2ccccc2C(F)(F)F)c[nH]1 [Compound 112],≥ 50000 nM,
O=C(Nc1ccc(C(F)(F)F)c(F)c1)c1cc(C(=O)c2ccccc2C(F)(F)F)c[nH]1 [Compound 113],54 nM,
O=C(Nc1cccc(C(F)(F)F)c1)c1cc(C(=O)c2ccccc2C(F)(F)F)c[nH]1 [Compound 115],2640 nM,
CC(C)(C)OC(=O)Nc1ccc(-c2ccc(NC(=O)c3cc(C(=O)c4ccccc4C(F)(F)F)c[nH]3)cc2)cc1 [Compound 116],≥ 50000 nM,
COC(=O)c1cc(C(F)(F)F)ccc1NC(=O)c1cc(C(=O)c2ccccc2C(F)(F)F)c[nH]1 [Compound 117],≥ 50000 nM,
O=C(Nc1ccc(Cc2ccccc2)cc1)c1cc(C(=O)c2ccccc2C(F)(F)F)c[nH]1 [Compound 119],14200 nM,
O=C(Nc1ccc(C(=O)N2CCC3(CC2)OCc2ccccc23)cc1)c1cc(C(=O)c2ccccc2C(F)(F)F)c[nH]1 [Compound 120],≥ 50000 nM,
C[Si]1(C)CCN(c2ccccc2C(=O)c2c[nH]c(C(=O)Nc3ccc(-c4cnco4)cc3)c2)CC1 [Compound 122],,IC50 [4]: 83 nM
O=C(Nc1ccc(S(=O)(=O)Nc2ccccc2)cc1)c1cc(C(=O)c2ccccc2C(F)(F)F)c[nH]1 [Compound 123],118 nM,
CC(C)(C)OC(=O)N1CCc2cc(-c3ccc(NC(=O)c4cc(C(=O)c5ccccc5C(F)(F)F)c[nH]4)cc3)ccc21 [Compound 124],≥ 50000 nM,
CC(C)(C)OC(=O)n1cc(-c2ccc(NC(=O)c3cc(C(=O)c4ccccc4C(F)(F)F)c[nH]3)cc2)c2ccccc21 [Compound 129],31200 nM,
COc1ccc(CNc2ccccc2C(=O)c2c[nH]c(C(=O)Nc3ccc(-c4cnco4)cc3)c2)cc1 [Compound 130],≥ 50000 nM,
O=C(Nc1ccc2c(c1)CCN2c1ccccc1)c1cc(C(=O)c2ccccc2C(F)(F)F)c[nH]1 [Compound 133],747 nM,
O=C(Nc1ccc(-c2cnco2)cc1)c1cc(C(=O)c2ccccc2N2CC3CCC2CO3)c[nH]1 (stereo not drawn) [Compound 134],99 nM,
CCN1CCN(c2ccccc2C(=O)c2c[nH]c(C(=O)Nc3ccc(-c4cnco4)cc3)c2)CC1 [Compound 135],2820 nM,
CN1CCN(c2ccccc2C(=O)c2c[nH]c(C(=O)Nc3ccc(-c4cnco4)cc3)c2)CC1 [Compound 139],1050 nM,
O=C(Nc1ccc(-c2cnco2)cc1)c1cc(C(=O)c2ccccc2N2CCCCCC2)c[nH]1 [Compound 140],134 nM,
O=C(Nc1ccc(-c2cnco2)cc1)c1cc(C(=O)c2ccccc2N2CCCCCCC2)c[nH]1 [Compound 141],189 nM,
O=C(Nc1ccc(-c2cnco2)cc1)c1cc(C(=O)c2ccccc2N2CC3(CCC3)C2)c[nH]1 [Compound 144],48 nM,
C[C@@H]1CN(c2ccccc2C(=O)c2c[nH]c(C(=O)Nc3ccc(-c4cnco4)cc3)c2)C[C@H](C)O1 [Compound 147],190 nM,
C[C@H]1CN(c2ccccc2C(=O)c2c[nH]c(C(=O)Nc3ccc(-c4cnco4)cc3)c2)CCO1 [Compound 148],66 nM,
CC1(C)CN(c2ccccc2C(=O)c2c[nH]c(C(=O)Nc3ccc(-c4cnco4)cc3)c2)CCO1 [Compound 150],84 nM,
O=C(Nc1ccc(-c2cnco2)cc1)c1cc(C(=O)c2ccccc2N2CCC(c3ccccc3)C2)c[nH]1 (stereo not drawn) [Compound 151],1560 nM,

# Continued by falling IC50 [4, 6], values first:
"IC50 [4, 6]",SMILES,further results
41 nM,C[C@H]1CN(c2ccccc2C(=O)c2c[nH]c(C(=O)Nc3ccc(-c4cnco4)cc3)c2)C[C@H](C)O1 [Compound 149],
39 nM,O=C(Nc1ccc(-c2cnco2)cc1)c1cc(C(=O)c2ccccc2C2=COCC2)c[nH]1 [Compound 145],
35 nM,COC1CN(c2ccccc2C(=O)c2c[nH]c(C(=O)Nc3ccc(-c4cnco4)cc3)c2)C1 [Compound 131],
28 nM,O=C(Nc1ccc(-c2cnco2)cc1)c1cc(C(=O)c2ccccc2N2CCOC2=O)c[nH]1 [Compound 136],
25 nM,O=C(Nc1ccc(-c2cnco2)cc1)c1cc(C(=O)c2ccccc2N2CCCC2=O)c[nH]1 [Compound 121],
25 nM,O=C(Nc1ccc(-c2cnco2)cc1)c1cc(C(=O)c2ccccc2C2=CCCC2)c[nH]1 [Compound 142],
23 nM,O=C(Nc1ccc(-c2cnco2)cc1)c1cc(C(=O)c2ccccc2N2CCCC2)c[nH]1 [Compound 128],
21 nM,O=C(Nc1ccc(-c2cnco2)cc1)c1cc(C(=O)c2ccccc2C2CCCC2)c[nH]1 [Compound 146],
20 nM,O=C(Nc1ccc(-c2cnco2)cc1)c1cc(C(=O)c2ccccc2N2CCOCC2)c[nH]1 [Compound 138],
16 nM,COc1cc(NC(=O)c2cc(C(=O)c3ccccc3C(F)(F)F)c[nH]2)ccc1C(F)(F)F [Compound 114],
14 nM,O=C(Nc1ccc(-c2cnco2)cc1)c1cc(C(=O)c2ccccc2N2CCCCC2)c[nH]1 [Compound 132],
14 nM,O=C(Nc1ccc(-c2cnco2)cc1)c1cc(C(=O)c2ccccc2-c2ccccc2)c[nH]1 [Compound 152],
14 nM,O=C(Nc1ccc(-c2cnco2)cc1)c1cc(C(=O)c2ccccc2N2CC(F)C2)c[nH]1 [Compound 153],
13 nM,CC1CCN(c2ccccc2C(=O)c2c[nH]c(C(=O)Nc3ccc(-c4cnco4)cc3)c2)CC1 [Compound 125],
13 nM,O=C1CC2C=C(c3ccc(NC(=O)c4cc(C(=O)c5ccccc5C(F)(F)F)c[nH]4)cc3)C=CC2N1 (stereo not drawn) [Compound 126],
13 nM,CCN(C)c1ccccc1C(=O)c1c[nH]c(C(=O)Nc2ccc(-c3cnco3)cc2)c1 [Compound 127],
12 nM,O=C(Nc1ccc(-c2cnco2)cc1)c1cc(C(=O)c2ccccc2N2CCSCC2)c[nH]1 [Compound 118],
11 nM,O=C(Nc1ccc(-c2cnco2)cc1)c1cc(C(=O)c2ccccc2N2CCC(F)C2)c[nH]1 (stereo not drawn) [Compound 137],
9 nM,O=C(Nc1ccc(-c2cnco2)cc1)c1cc(C(=O)c2ccccc2CCCCO)c[nH]1 [Compound 143],
7 nM,O=C(Nc1ccc(-c2cncs2)cc1)c1cc(C(=O)c2ccccc2C(F)(F)F)c[nH]1 [Compound 29],AML cell differentiation [1]: induce AML cell differentiation; AML cell cycle arrest [2]: significantly induce AML cell cycle arrest in the G0/G1 phase; IC50 [3]: 280 to 2870 nM; AML cell apoptosis [5]: apoptosis
